Patent US20120302636A1, “METHOD OF TREATING A DISORDER ASSOCIATED WITH MTP” (priority 2009, published 2012)
Where two headings read alike, the source gives them in different places.

Tests used:
[1] = Example 7: ascending dose study in obese subjects, pharmacokinetics
Description: This example involved a clinical study of the compound of formula (I), which was a randomized, double-blind, placebo-controlled, ascending dose study to evaluate the safety, tolerability and pharmacokinetics/pharmacodynamics of the compound of formula (I) tablets administered twice daily for two weeks in obese subjects.
The subjects were separated into four arms of nine (one with ten) test subjects (which were administered the compound of formula (I)) and three placebo subjects.

[2] = Example 1: plasma and urine concentrations by LC/MS/MS
[3] = target: MTP (Homo sapiens, UniProt P55157)
[4] = Example 3: pharmacokinetics; type: in vivo, human; conditions: both active groups
[5] = in vivo
From the text: This example involved a clinical study of the compound of formula (I), which was a randomized, double-blind, placebo-controlled, parallel group study to evaluate the efficacy of the compound of formula (I) administered twice daily for twelve weeks in obese subjects.

[6] = Example 5: pharmacokinetics; type: in vivo, human
Description: Fifty-two Japanese patients with hyperlipidemia (LDL-C between 140 and 220 mg/dL; TG≦400 mg/dL) participated in the study. […] One group received a fixed dose of 2 mg per tablet through the entire study. The other group received escalating doses of 0.5 mg (weeks 1-4), 1 mg (weeks 5-8), and 2 mg (weeks 9-12). For the efficacy analysis, 50 subjects were observed (25 in the fixed-dose group and 25 in the dose escalation group).
The objective of this study was preliminary evaluation of the efficacy (based on serum lipid levels), safety, and pharmacokinetics of the compound of formula (I) administered orally twice daily after breakfast and supper for 12 weeks as a fixed dose (4 mg/day) or escalating dose (1 mg/day, 2 mg/day and 4 mg/day) regimen in patients with hyperlipidemia.

[7] = Example 6: pharmacokinetics; type: in vivo, human
From the text: Originally, the study was planned as 4 sequential cohorts of healthy male Caucasian subjects (Cohorts 1 to 4) followed by a cohort of male Caucasian patients with elevated triglycerides (HTG patients, Cohort 5). An additional cohort of healthy male Caucasian subjects (Cohort 4.1) was enrolled into the study (6 cohorts in total). The cohorts were as follows: Cohorts 1 to 4.1 had healthy Caucasian males, aged 18-45 years with a body weight of 60-100 kg and body mass index (BMI) between 19-28 kg/m^2 at screening and fasting triglycerides less than 1.69 mmol/L (less than 150 mg/dL) at the screening visit and Day-3. Cohort 5 had Caucasian males, aged 18-50 years with a body weight of 60-115 kg and BMI less than 35 kg/m^2 at screening and with elevated fasting triglycerides (TG≧1.69 mmol/L and <5.62 mmol/L; ≧150 mg/dL and <500 mg/dL) at the screening visit and Day-3.
The planned treatment for Cohorts 1 to 4 was twice daily administration of 5 mg, 10 mg or 15 mg the compound of formula (I)/placebo, or once daily administration of 30 mg the compound of formula (1)/placebo. […] As only the compound of formula (I) 5 mg capsules were supplied for this study, doses were administered once daily to determine the maximum tolerated dose, and the planned doses for each subsequent cohort were amended based on the safety and tolerability data obtained from the preceding cohort. The dose level and dosing schedule planned for the patients in Cohort 5 was determined by the maximum tolerated dose and dosing schedule as reported from the planned Cohorts 1 to 4.1.
Twelve healthy male Caucasian subjects were enrolled in each of Cohorts 1 to 4.1; dose cohorts were randomized in a ratio 9:3 to receive the compound of formula (I) or placebo, respectively, at the dose level associated with that cohort. Twelve male Caucasian patients with elevated triglycerides were randomized in a ratio of 8:4 to receive the compound of formula (I) or placebo, respectively, at the maximum tolerated dose level and dosing schedule.

[8] = Example 2: plasma and urine pharmacokinetics; type: in vivo, human
Description: Each tablet contained 5 mg (BID), 10 mg (QD), 20 mg (QD), or 30 mg (QD).

Chain of MTP (P55157 19-894, species assumed): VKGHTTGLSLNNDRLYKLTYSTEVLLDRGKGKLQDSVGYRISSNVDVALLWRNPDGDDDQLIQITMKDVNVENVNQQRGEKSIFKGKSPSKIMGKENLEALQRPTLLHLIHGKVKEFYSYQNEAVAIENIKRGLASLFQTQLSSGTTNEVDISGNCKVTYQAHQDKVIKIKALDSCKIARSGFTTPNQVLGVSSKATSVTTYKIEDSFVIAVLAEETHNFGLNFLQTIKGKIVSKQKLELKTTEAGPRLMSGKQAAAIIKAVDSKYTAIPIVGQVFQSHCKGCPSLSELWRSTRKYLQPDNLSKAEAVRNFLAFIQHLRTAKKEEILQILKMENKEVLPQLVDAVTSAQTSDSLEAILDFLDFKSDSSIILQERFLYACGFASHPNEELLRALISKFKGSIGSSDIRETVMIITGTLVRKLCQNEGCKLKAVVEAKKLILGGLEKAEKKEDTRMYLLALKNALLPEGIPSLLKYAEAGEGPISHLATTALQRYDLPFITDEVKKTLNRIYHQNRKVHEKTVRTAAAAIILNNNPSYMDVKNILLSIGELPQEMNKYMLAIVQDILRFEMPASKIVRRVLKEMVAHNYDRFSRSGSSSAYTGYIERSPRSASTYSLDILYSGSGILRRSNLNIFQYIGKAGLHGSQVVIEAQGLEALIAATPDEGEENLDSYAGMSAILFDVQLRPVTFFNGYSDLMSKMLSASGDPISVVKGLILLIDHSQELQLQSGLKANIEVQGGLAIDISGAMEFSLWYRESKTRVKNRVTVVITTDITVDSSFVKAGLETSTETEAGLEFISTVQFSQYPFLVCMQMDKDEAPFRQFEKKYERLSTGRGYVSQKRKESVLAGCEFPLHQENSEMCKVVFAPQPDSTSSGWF
Chain of MTP (P07237 18-508 partner, species assumed): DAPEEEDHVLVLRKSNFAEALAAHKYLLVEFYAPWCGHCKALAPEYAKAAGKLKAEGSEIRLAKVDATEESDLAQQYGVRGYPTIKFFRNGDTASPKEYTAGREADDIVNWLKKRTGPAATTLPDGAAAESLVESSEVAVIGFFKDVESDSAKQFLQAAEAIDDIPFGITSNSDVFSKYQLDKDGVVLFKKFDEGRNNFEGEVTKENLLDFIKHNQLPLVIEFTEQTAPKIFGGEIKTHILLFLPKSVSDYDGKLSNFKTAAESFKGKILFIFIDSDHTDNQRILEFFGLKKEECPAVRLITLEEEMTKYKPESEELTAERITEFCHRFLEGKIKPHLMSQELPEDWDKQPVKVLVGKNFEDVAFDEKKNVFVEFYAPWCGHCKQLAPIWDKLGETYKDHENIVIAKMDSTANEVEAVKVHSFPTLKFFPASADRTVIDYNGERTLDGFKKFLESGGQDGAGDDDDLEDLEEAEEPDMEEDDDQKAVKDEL

Compound: CN(C)C(=O)c1cc(CC(=O)O)ccc1NC(=O)c1ccccc1-c1ccc(C(F)(F)F)cc1 [metabolite M1, 2-(3-(dimethylcarbamoyl)-4-(4′-(trifluoromethyl)biphenyl-2-ylcarboxamido)phenyl)acetic acid]
- mean t1/2 ([1]; 1 mg group): 70.1 h
- time to reach steady-state ([1]; 1 and 2.5 mg groups): 7 days
- Cmax and AUC0-τ dose proportionality (M1) ([1]; 1 to 5 mg): dose proportional increase
- time to reach steady-state ([1]; 3.5 and 5 mg groups): 5 days
- mean Cmin ([2]; 5 mg group, Day 2): 8.33 ng/mL
- mean Cmin ([2]; 5 mg group, Day 6): 25.97 ng/mL
- mean Cmin relative to Day 2 ([2]; 5 mg group, Day 6): 3.12 times
- mean Cmin ([2]; 15 mg group, Day 2): 33.57 ng/mL
- mean Cmin ([2]; 15 mg group, Day 8): 181.90 ng/mL
- mean Cmin relative to Day 2 ([2]; 15 mg group, Day 8): 5.42 times
- excretion in urine (metabolite) ([2]; 5 and 15 mg groups): excreted in urine in all subjects
- detection of metabolite in plasma ([2]; all subjects receiving compound): detected in plasma of all subjects
- MTP inhibitory activity [3]: no MTP inhibitory activity
- MTP inhibitory activity ([3]; listed as M1): inactive
- plasma metabolite M1 [4]: quantifiable
- mean trough concentration of M1 [5]: increased in a dose-related manner
- mean Cmin ([6]; dose escalation group, Week 10): 12.15 ng/mL
- mean Cmin ([6]; dose escalation group, Week 10, females): 12.06 ng/mL
- mean Cmin ([6]; dose escalation group, Week 10, males): 12.28 ng/mL
- mean Cmin ([6]; dose escalation group, Week 12): 13.47 ng/mL
- mean Cmin ([6]; dose escalation group, Week 12, females): 15.28 ng/mL
- mean Cmin ([6]; dose escalation group, Week 12, males): 10.76 ng/mL
- mean Cmin ([6]; fixed-dose group, Week 10): 12.20 ng/mL
- mean Cmin ([6]; fixed-dose group, Week 12): 10.74 ng/mL
- mean apparent terminal half-life ([7]; 5 mg BID, healthy): approximately 27 h
- systemic availability (AUC0-τ and Cmax) in patients vs subjects with normal triglycerides ([7]; 5 mg, Cohort 5 vs Cohort 1): appeared to be greater
- mean apparent terminal half-life ([7]; 5 mg, HTG patients): approximately 30 h
- time to steady-state ([7]; 5 to 20 mg QD and BID, healthy subjects and patients): ~8 days
- extent of systemic exposure, dose proportionality ([7]; 5 to 20 mg QD, healthy): greater than dose-proportional
- urinary recovery up to 72 h post-last dose ([7]; 14 days administration, adjusted for molecular weight): up to 20 % of the total administered dose
- urinary recovery ([7]; first administration): less than 8 % of the administered dose
- Cmax and AUC0-24hr dose proportionality (M1) ([8]; 10, 20, 30 mg QD, initial dose Day 1): greater than a dose-proportional
- Cmin of the metabolite M1 ([8]; Day 2 to 14, all groups): quantifiable
- plasma metabolite M1 ([8]; after initial dose on Day 1, all groups): quantifiable
- metabolite M1 in urine ([8]; all groups): excreted in urine
- Cmax and AUC dose proportionality (M1) ([8]; final dose on Day 14): dose-proportional
